From patent US20190112580A1, “METHODS FOR TREATING CO[…] AND RELATED CULTURED CELLS” (priority 2017, published 2019)

What was measured:
[1] = system: myoblast cell preparation; assay: 5-AZA concentration and medium finding in myoblast cell preparation
Description: The myoblast cell preparation may be cultured in a proliferation medium in the presence of a DNA methyltransferase inhibitor, such as 5-AZA. A DNA methyltransferase inhibitor may be introduced while the myoblast cell preparation is being developed in the proliferation medium. For instance, a DNA methyltransferase inhibitor may be introduced once the myoblast cell preparation is at 50-80% cell confluence by visual inspection. A higher confluence percentage or density may be appropriate, so long as the confluence is not so high that the cells become overcrowded or grow in multiple layers, resulting in spontaneous cell fusion and/or cell death. The DNA methyltransferase inhibitor may be introduced earlier, for instance, at the same time the isolated satellite cells are added to the proliferation medium. […] Concentrations of DNA methyltransferase inhibitor used may vary. For example, the myoblast cell preparation may be cultured in proliferation medium in the presence of 5 μM of 5-AZA. […] The myoblast cell preparation may be cultured in the presence of a DNA methyltransferase inhibitor for a period of time. One appropriate period of time using 5 μM of 5-AZA is 24 hours. As few as 6 hours may be appropriate using 5 μM of 5-AZA.

[2] = system: CP patient derived myoblast cells; assay: Myoblast fusion and myotube formation, immunostaining and Fusion Index; assay type: cell-based, human; conditions: 5 μM, 24 hours pretreatment, 42 hours differentiation
Description: Myotubes were differentiated using the following methods. Once the appropriate level of cell confluence of 50-80% was obtained for the myoblast cell preparation, fusion and differentiation of myoblasts into myotubes was promoted by switching from a high-serum medium to a low-serum differentiation medium. […] Specifically, the high-serum proliferation medium was made of Ham's F10 medium (Corning Life Sciences, Tewksbury, Mass.) combined with 20% Fetal Bovine Serum (“FBS”) (Gibco brand, Thermo Fischer Scientific, Waltham, Mass.) 10 mg/ml streptomycin, and 100 units/ml penicillin (Gibco), human recombinant bFGF (5 ng/ml) (Becton Dickenson). […] Cell preparations cultured in the low-serum differentiation medium may be analyzed for myotube formation starting from about 24 hours to about 6 weeks after switching from the high-serum to the low-serum medium.
For visual and quantitative analysis by immunostaining, the isolated satellite cell-derived myoblast cell preparations were treated for immunostaining. […] Fluorescence microscopy was performed using an epifluorescence or confocal microscope using the 20× air objective, the 40×, or 63× oil immersion objective and zoom rates between 1 and 3 in sequential scanning mode. […]

[3] = system: proliferating CP and TD myoblast cultures; assay: Global DNA methylation, MethylFlash Methylated DNA Quantification Kit; assay type: cell-based, human; conditions: 5 μM, 24 hours; FIG. 9A
Experimental: FIG. 9A illustrates global methylation levels of DNA in proliferating CP and TD myoblast cultures that were treated or non-treated with 5-AZA. Methylation levels were measured using a MethylFlash Methylated DNA Quantification Kit (EpiGentek, P-1034-96). Myoblasts were seeded into gelatin-coated 10 cm plates. Myoblast cell preparations from CP and TD study subjects were exposed to 5 μM of 5-AZA in proliferation medium. 5-AZA was introduced while the myoblast cell preparations were being developed in the high-serum medium, once the myoblast cell preparations were at about 60% of cell plate confluence by visual inspection. […] The myoblast cell preparations then had the 5-AZA washed off by switching the myoblast cell preparations each to fresh high-serum medium and further expanded to 90% of confluence. DNA was extracted from these cultures using the “DNA Purification from Cultured Cells” protocol as described in the Gentra Puregene DNA isolation kit (Qiagen, 158388).
In FIG. 9A, global methylation levels of DNA were investigated in proliferating CP and TD myoblast cultures that were treated or non-treated with 5-AZA. Methylation levels were measured using a MethylFlash Methylated DNA Quantification Kit (EpiGentek, P-1034-96). Myoblasts were seeded into gelatin-coated 10 cm plates. Myoblast cell preparations from CP and TD study subjects were exposed to 5 μM of 5-AZA in proliferation medium. […]

[4] = system: C2C12 myoblasts; conditions: cited from earlier work
[5] = 5 μM for 3 days (Montesano et al.)

SMILES: Nc1ncn([C@@H]2O[C@H](CO)[C@@H](O)[C@H]2O)c(=O)n1 [5-AZA, 5-azacytidine]
- myotube growth ([1]; 0.5 μM of 5-AZA): not sufficiently concentrated to cause appropriate myotube growth
- death of the cells ([1]; 50 μM of 5-AZA): causes the death of the cells in the myoblast cell preparation
- concentrations lethal to cells ([1]; human): ≥ 50 µM
- myoblast fusion and myotube formation, morphologically ([2]; FIG. 4B): sufficient to partially restore myoblast fusion and myotube formation
- myoblast fusion and myotube formation, quantitatively (Fusion Index) ([2]; FIG. 4C): sufficient to partially restore myoblast fusion and myotube formation
- global methylation levels of DNA [3]: caused global DNA hypomethylation in both CP and TD patients
- DNA methylation and differentiation [4, 5]: induced DNA hypomethylation and improved differentiation of C2C12 myoblasts
- cytotoxicity [4, 5]: without overt signs of cytotoxicity
- muscle-specific gene expression, myogenesis and myotube formation ([4]; mouse-derived C2C12 muscle cell lines): promoted expression of muscle-specific genes, enhanced myogenesis and myotube formation
